From patent US20260042764A1, “COMPOSITIONS AND METHODS FOR INHIBITION OF KRAS” (TheRas, Inc., priority 2022, published 2026)

Key:
[1] = test system: SW620 cells (KRAS G12V); test: Cell-based pERK HTRF assay in SW620 cell (Biological Example 4); details: Homo sapiens, SW-620, SW620 (KRAS G12V) cells, pERK HTRF
In short: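 Read-out: HTRF pERK signal (excitation 320 nm, emission 615 nm) from lysates of SW620 cells after 4 h compound exposure. Dose range was 9 points, half-log steps from 1 μM, in 0.25% DMSO; antibody incubation ran 4–24 h at room temperature.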

[2] = test system: GP2d cells (KRAS G12D); test: Cell-based pERK HTRF assay in GP2d cell (Biological Example 2); details: GP2d, GP2d (KRAS G12D) cells, pERK HTRF
In short: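 GP2d (KRAS G12D) cells were plated in DMEM/10% FBS and treated the next day for 60 min with compounds. Dosing used 9-point half-log series starting at 1 μM or 100 nM in 0.25% DMSO. Lysates were read by HTRF pERK (d2/Eu cryptate antibodies) after 4–24 h at room temperature, with excitation at 320 nm and emission at 615 nm.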

[3] = biological target: T1, Avi-KRAS WT (1-169) GppNHp/RAF1 RBD-3xFLAG (52-151) (Homo sapiens, UniProt P01116); test: Raf1-KRAS WT-GppNHP disruption HTRF assay (Biological Example 1); assay type: binding
T1 construct: Avi-KRAS WT (1-169)
In short: (§1)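 HTRF PPI disruption; buffer 50 mM Tris pH 7.5, 100 mM NaCl, 5 mM MgCl2, 0.1% BSA, 0.01% Tween, 10% DMSO. Protein mix 1 h RT shaking, reagent mix 1 h RT shaking. Data as % activity vs DMSO (100%).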

[4] = biological target: T2, Avi-KRAS G12D (1-169) GppNHp/RAF1 RBD-3xFLAG (52-151) (Homo sapiens, UniProt P01116, G12D); test: Raf1-KRAS G12D-GppNHP disruption HTRF assay (Biological Example 1); assay type: binding
T2 construct: Avi-KRAS G12D (1-169)
In short: as §1

[5] = biological target: T3, Avi-KRAS G12R (1-169) GppNHp/RAF1 RBD-3xFLAG (52-151) (Homo sapiens, UniProt P01116, G12R); test: Raf1-KRAS G12R-GppNHP disruption HTRF assay (Biological Example 1); assay type: binding
T3 construct: Avi-KRAS G12R (1-169)
In short: as §1

[6] = biological target: T4, Avi-KRAS G12V (1-169) GppNHp/RAF1 RBD-3xFLAG (52-151) (Homo sapiens, UniProt P01116, G12V); test: Raf1-KRAS G12V-GppNHP disruption HTRF assay (Biological Example 1); assay type: binding
T4 construct: Avi-KRAS G12V (1-169)
In short: as §1

[7] = KRAS WT, GppNHp-loaded, Table 11
[8] = KRAS G12D, GppNHp-loaded, Table 11
[9] = KRAS G12R, GppNHp-loaded, Table 11
[10] = KRAS G12V, GppNHp-loaded, Table 11
[11] = KRAS WT, GppNHp-loaded, class symbols
[12] = KRAS G12D, GppNHp-loaded, class symbols
[13] = KRAS G12R, GppNHp-loaded, class symbols
[14] = KRAS G12V, GppNHp-loaded, class symbols

T1 sequence (P01116 1-169 isoform P01116-2): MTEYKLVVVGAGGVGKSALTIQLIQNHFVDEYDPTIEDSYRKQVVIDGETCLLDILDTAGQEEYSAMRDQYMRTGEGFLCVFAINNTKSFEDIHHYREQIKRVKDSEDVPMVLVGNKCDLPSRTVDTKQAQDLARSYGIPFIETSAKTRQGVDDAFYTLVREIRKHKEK
T2 sequence (P01116 1-169 isoform P01116-2 G12D): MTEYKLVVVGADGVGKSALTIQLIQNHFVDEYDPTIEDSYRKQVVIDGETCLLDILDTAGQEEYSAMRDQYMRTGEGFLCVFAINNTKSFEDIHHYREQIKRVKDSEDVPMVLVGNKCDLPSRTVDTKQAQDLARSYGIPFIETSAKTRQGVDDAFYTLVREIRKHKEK
T4 sequence (P01116 1-169 isoform P01116-2 G12V): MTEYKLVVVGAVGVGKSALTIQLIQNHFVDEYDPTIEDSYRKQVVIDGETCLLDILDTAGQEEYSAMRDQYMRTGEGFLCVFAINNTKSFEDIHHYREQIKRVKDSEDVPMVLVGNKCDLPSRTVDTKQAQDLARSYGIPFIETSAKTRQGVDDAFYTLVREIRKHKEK
T3 sequence (P01116 1-169 isoform P01116-2 G12R): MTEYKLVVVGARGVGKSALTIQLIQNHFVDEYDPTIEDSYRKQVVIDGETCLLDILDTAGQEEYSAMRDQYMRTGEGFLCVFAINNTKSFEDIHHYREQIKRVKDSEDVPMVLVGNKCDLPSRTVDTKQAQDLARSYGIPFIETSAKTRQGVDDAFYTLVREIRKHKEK

Row | Structure (SMILES) | IC50 [1] [nM] | IC50 [2] [nM] | IC50 [3, 7] [nM] | IC50 [4, 8] [nM] | IC50 [5, 9] [nM] | IC50 [6, 10] [nM] | IC50 ([3]; KRAS WT-GppNHp/RAF1 RBD HTRF) [nM] | IC50 ([4]; KRAS G12D-GppNHp/RAF1 RBD HTRF) [nM] | IC50 ([5]; KRAS G12R-GppNHp/RAF1 RBD HTRF) [nM] | IC50 ([6]; KRAS G12V-GppNHp/RAF1 RBD HTRF) [nM] | IC50 ([1]; class symbols) [nM] | IC50 ([2]; class symbols) [nM] | IC50 [3, 11] [nM] | IC50 [4, 12] [nM] | IC50 [5, 13] [nM] | IC50 [6, 14] [nM]
1 | N#Cc1c(N)sc2c(F)ccc(-c3c(C(F)(F)F)cc4c(N5CCNC(=O)CC5)nc(OC[C@@]56CCCN5C[C@H](F)C6)nc4c3F)c12 [Compound 251] | 100 to 1000 | < 100 | 100 to 1000 | 100 to 1000 | 100 to 1000 | 100 to 1000 |  |  |  |  |  |  |  |  |  | 
2 | C[C@@H]1C[C@H](O)CCN1c1nc(OC[C@@]23CCCN2C[C@H](F)C3)nc2c(F)c(-c3ccc(F)c4sc(N)c(C#N)c34)c(C(F)(F)F)cc12 [Compound 265] | < 100 | < 100 | 100 to 1000 | 100 to 1000 | 100 to 1000 | 100 to 1000 |  |  |  |  |  |  |  |  |  | 
3 | CC[C@@H](C)C(=O)N1CC[C@H](N(CC)c2nc(OC[C@@]34CCCN3C[C@H](F)C4)nc3c(F)c(-c4ccc(F)c5sc(N)c(C#N)c45)c(C(F)(F)F)cc23)C1 (atropisomer, axis not shown) [Compound 563] | < 100 | < 100 |  |  |  |  | 100 to 1000 | < 100 | 100 to 1000 | 100 to 1000 |  |  |  |  |  | 
4 | C[C@@H]1CN(c2nc(OC[C@@]34CCCN3C[C@H](F)C4)nc3c(F)c(-c4ccc(F)c5sc(N)c(C#N)c45)c(C(F)(F)F)cc23)Cc2cc(C(=O)N(C)C)nn21 [Compound 423] | < 100 | < 100 |  |  |  |  | 100 to 1000 | 100 to 1000 | 100 to 1000 | 100 to 1000 |  |  |  |  |  | 
5 | CC(C)C(=O)N1CC[C@@H]2[C@H]1CN2c1nc(OC[C@@]23CCCN2C[C@H](F)C3)nc2c(F)c(-c3ccc(F)c4sc(N)c(C#N)c34)c(C(F)(F)F)cc12 [Compound 536] | < 100 | < 100 |  |  |  |  | 1000 to 10000 | 1000 to 10000 | 1000 to 10000 | 1000 to 10000 |  |  |  |  |  | 
6 | CCC(=O)N1CC[C@](C)(N(C)c2nc(OC[C@@]34CCCN3C[C@H](F)C4)nc3c(F)c(-c4ccc(F)c5sc(N)c(C#N)c45)c(C(F)(F)F)cc23)C1 [Compound 506] | < 100 | < 100 |  |  |  |  | 1000 to 10000 | 100 to 1000 | 1000 to 10000 | 1000 to 10000 |  |  |  |  |  | 
7 | CCN(c1nc(OC[C@@]23CCCN2C[C@H](F)C3)nc2c(F)c(-c3ccc(F)c4sc(N)c(C#N)c34)c(C(F)(F)F)cc12)[C@@H]1CN2C(=O)OC[C@]2(C)C1 (atropisomer, axis not shown) [Compound 795] |  |  |  |  |  |  |  |  |  |  | < 100 | < 100 | < 100 | < 100 | < 100 | < 100

Now from value to compound:

Row | IC50 [1] [nM] | IC50 [2] [nM] | IC50 [3, 7] [nM] | IC50 [4, 8] [nM] | IC50 [5, 9] [nM] | IC50 [6, 10] [nM] | IC50 ([3]; KRAS WT-GppNHp/RAF1 RBD HTRF) [nM] | IC50 ([4]; KRAS G12D-GppNHp/RAF1 RBD HTRF) [nM] | IC50 ([5]; KRAS G12R-GppNHp/RAF1 RBD HTRF) [nM] | IC50 ([6]; KRAS G12V-GppNHp/RAF1 RBD HTRF) [nM] | IC50 ([1]; class symbols) [nM] | IC50 ([2]; class symbols) [nM] | IC50 [3, 11] [nM] | IC50 [4, 12] [nM] | IC50 [5, 13] [nM] | IC50 [6, 14] [nM] | Structure (SMILES)
8 |  |  |  |  |  |  |  |  |  |  | < 100 | < 100 | < 100 | < 100 | < 100 | < 100 | CCN(c1nc(OC[C@@]23CCCN2C[C@H](F)C3)nc2c(F)c(-c3ccc(F)c4sc(N)c(C#N)c34)c(C(F)(F)F)cc12)[C@H]1CCN(C(=O)OC2CCN(C(C)=O)C2)C1 (stereo partly drawn) [Compound 711]
9 | 100 to 1000 | < 100 | 100 to 1000 | 1000 to 10000 | 1000 to 10000 | 100 to 1000 |  |  |  |  |  |  |  |  |  |  | CC(=O)N1C[C@H]2CCN(c3nc(OC[C@@]45CCCN4C[C@H](F)C5)nc4c(F)c(-c5ccc(F)c6sc(N)c(C#N)c56)c(C(F)(F)F)cc34)[C@H]2C1 [Compound 210]
10 | < 100 | < 100 | 100 to 1000 | 100 to 1000 | 100 to 1000 | 100 to 1000 |  |  |  |  |  |  |  |  |  |  | CN(CCS(C)(=O)=O)c1nc(OC[C@@]23CCCN2C[C@H](F)C3)nc2c(F)c(-c3ccc(F)c4sc(N)c(C#N)c34)c(C(F)(F)F)cc12 [Compound 217]
11 | < 100 | < 100 | 100 to 1000 | < 100 | < 100 | 100 to 1000 |  |  |  |  |  |  |  |  |  |  | N#Cc1c(N)sc2c(F)ccc(-c3c(C(F)(F)F)cc4c(N5CCCC(O)CC5)nc(OC[C@@]56CCCN5C[C@H](F)C6)nc4c3F)c12 (stereo partly drawn) [Compound 267]
